Measurements: patent publication US9930888B2, “Composition” (Conopco, Inc., priority 2013, dated 2018)

What was measured:
[1] = appearance of lactam solution when added to base formulation at 5%; format: physicochemical; conditions: 3% lactam in PEG-60 Hydrogenated Castor Oil; Magnetic stirring 1 hour
Source text: We ensured the lactam solutions were fully uniform through constant mechanical agitation (to avoid the settling of any unsolubilised lactam material) and added them to base using slow speed stirring to incorporate them without generating aeration.

[2] = solubility of lactam in candidate solubilisers (magnetic stirring or ultrasonic mixing); format: physicochemical
Procedure: An Ultrasonic mixer was used to obtain determine solubility.
We used a Hielscher UP200S (200W) Sonic Tip on batches of 5-20 ml. We sonicated for up to 60 minutes.
We then tested the candidate solubilisers with 1% lactam, both with 72 hours high speed magnetic stirring (with held temperature of ˜500 in the cases of solubilisers that solidify alone at room temperature) and also 20 minutes Sonication.
In each case we incorporated the lactam powder into the solubilisers (at the levels indicated in the below table) using high speed stirring to avoid lumps from forming. Once the powder was added, the described mixing method (either continued high speed stirring or Ultrasonic mixing) commenced. In the cases of Sorbitan Oleate and Polysorbate-60, we applied initial heating to approx. 500 to ensure the solubilisers were fully liquid prior to commencing addition of the lactam. Both of these materials are non-flowing at room temperature. PEG-40 Hydrogenated Castor required initial heating to ˜350 to ensure complete fluidity prior to commencing.

[3] = as above; format: physicochemical; conditions: 1% lactam in PEG-40 Hydrogenated Castor Oil; Magnetic stirring 24 hours
S. epidermidis = assay: bacterial respiration of S. epidermidis suspension in microplate; format: cell-based; conditions: lactam pre-blended with hydrotrope, added to remainder of composition, diluted to 11.5 ppm and 0.575 ppm; 20 hours
Procedure: Test samples were diluted in sterile water to achieve a 11.5 ppm level of lactam. Dilute solution (80 μl) was added to a S. epidermidis suspension (20 μl) of bacteria at a concentration of 8 logs in a microplate. Growth media (100 μl tryptone soya broth) was added to each well of the microplate and incubated for 20 hours. Bacterial respiration was measured every 30 minutes and the results were: • A—lactam+hydrotrope only (respiration of surviving bacteria detected ˜4-5 h) • B—lactam added directly to base formulation (which contains MPG)—no pre-mixing prior to addition (respiration of surviving bacteria detected 4-5 hrs) • C—lactam pre-mixed with hydrotrope and then added to base formulation (respiration of surviving bacteria not detected—20 hrs is max detection time) • D—hydrotrope added to base formulation (respiration of surviving bacteria detected 3-4 hrs). The example below is from data obtained when pre-blending lactams with hydrotrope before adding to the remainder of the composition, and diluting to 11.5 ppm and 0.575 ppm in sterile water in order to assess efficacy against S. epidermidis suspension Dilute solution (80 μl) was added to a S. epidermidis suspension (20 μl) of bacteria at a concentration of 8 logs in a microplate. Growth media (100 μl tryptone soya broth) was added to each well of the microplate and incubated for 20 hours. Bacterial respiration was measured every 30 minutes. Data of the test samples were then compared to un-treated cell suspensions (sterile water added instead of test samples) and percent inhibition calculated.

With C=C1NC(=O)C=C1c1ccccc1 [5-methylene-4-phenyl-1H-pyrrol-2(5H)-one] the “Observations when added to base @ 5%” value [1] was “Cloudy in solution”, the “Observations of solvent solution: % of lactam solubilised” value (“Observations … % of lactam solubilised” below) ([2]; 1% lactam in 3-Methoxy-3-methyl-1-butanol, 20 minutes sonication, temp reached 60-70 C., forced) was ~5% of lactam and the “Observations of solvent solution” value ([2]; 1% lactam in 3-Methoxy-3-methyl-1-butanol, Magnetic stirring 72 hours) was “No solubility”. For the same compound, the “Observations of solvent solution” value ([2]; 1% lactam in Diglycerin, 20 minutes sonication, temp reached 60-70 C.) was “No solubility”, the “Observations of solvent solution” value ([2]; 1% lactam in Diglycerin, Magnetic stirring 72 hours) was “No solubility” and the “Observations … % of lactam solubilised” value ([2]; 1% lactam in Isopentyldiol, 20 minutes sonication, temp reached 60-70 C., forced) was ~5% of lactam. The “Observations of solvent solution” value ([2]; 1% lactam in Isopentyldiol, Magnetic stirring 72 hours) was “No solubility”, the “Observations … % of lactam solubilised” value ([2]; 1% lactam in PEG-40 Hydrogenated Castor Oil, Magnetic stirring 72 hours) was ~90% of lactam and the “Observations … % of lactam solubilised” value ([2]; 1% lactam in PEG-40 Hydrogenated Castor Oil, Magnetic stirring 72 hours with temp. at 50 C.) was ~99% of lactam. The “Observations … % of lactam solubilised” value ([2]; 1% lactam in PEG-60 Hydrogenated Castor Oil, 20 minutes sonication, temp reached 60-70 C.) was ~25% of lactam, the “Observations … % of lactam solubilised” value ([2]; 1% lactam in PEG-60 Hydrogenated Castor Oil, Magnetic stirring 72 hours at 50 C.) was ~25% of lactam and the “Observations … % of lactam solubilised” value ([2]; 1% lactam in Pentylene Glycol, 20 minutes sonication, temp reached 60-70 C.) was ~5% of lactam. The “Observations … % of lactam solubilised” value ([2]; 1% lactam in Pentylene Glycol, Magnetic stirring 72 hours) was ~5% of lactam, the “Observations … % of lactam solubilised” value ([2]; 1% lactam in Polysorbate 20, Magnetic stirring 24 hours) was ~75% of lactam and the “Observations … % of lactam solubilised” value ([2]; 1% lactam in Polysorbate 20, Magnetic stirring 72 hours) was ~95% of lactam. For the same compound, the “Observations … % of lactam solubilised” value ([2]; 1% lactam in Polysorbate 60, 20 minutes sonication, temp reached 60-70 C.) was ~25% of lactam, the “Observations … % of lactam solubilised” value ([2]; 1% lactam in Polysorbate 60, Magnetic stirring 72 hours at 50 C.) was ~25% of lactam and the “Observations … % of lactam solubilised” value ([2]; 1% lactam in Polysorbate 80, 20 minutes sonication, temp reached 60-70 C.) was ~25% of lactam. The “Observations … % of lactam solubilised” value ([2]; 1% lactam in Polysorbate 80, Magnetic stirring 72 hours at 50 C.) was ~25% of lactam, the “Observations … % of lactam solubilised” value ([2]; 1% lactam in Sisterna SP30-C, 20 minutes sonication, temp reached 60-70 C.) was ~25% of lactam and the “Observations … % of lactam solubilised” value ([2]; 1% lactam in Sisterna SP30-C, Magnetic stirring 72 hours at 50 C.) was ~25% of lactam. The “Observations … % of lactam solubilised” value ([2]; 1% lactam in Sisterna SP50-C, 20 minutes sonication, temp reached 60-70 C.) was ~25% of lactam, the “Observations … % of lactam solubilised” value ([2]; 1% lactam in Sisterna SP50-C, Magnetic stirring 72 hours at 50 C.) was ~25% of lactam and the “Observations … % of lactam solubilised” value ([2]; 1% lactam in Sisterna SP70-C, 20 minutes sonication, temp reached 60-70 C.) was ~25% of lactam. For the same compound, the “Observations … % of lactam solubilised” value ([2]; 1% lactam in Sisterna SP70-C, Magnetic stirring 72 hours at 50 C.) was ~25% of lactam, the “Observations … % of lactam solubilised” value ([2]; 1.5% lactam in Polysorbate 20, 20 minutes sonication, temp reached 60-70 C.) was ~75% of lactam and the “Observations … % of lactam solubilised” value ([2]; 1.5% lactam in Polysorbate 20, 60 minutes sonication, temp reached 80-90 C., dark brown colour) was ~95% of lactam. The “Observations … % of lactam solubilised” value ([2]; 1.5% lactam in Polysorbate 20, Magnetic stirring 48 hours) was ~50% of lactam, the “Observations … % of lactam solubilised” value ([2]; 1.5 lactam in Polysorbate 20, Magnetic stirring, heated to 50 C. 72 hours) was ~75% of lactam and the “Observations of solvent solution: % of lactam appeared to solubilise” value ([2]; 2.1% lactam in PEG-40 Hydrogenated Castor Oil, 20 minutes sonication, temp reached 80 C., small amount of 'burnt' spots visible) was 90% of lactam. For the same compound, the “Observations of solvent solution” value ([2]; 2.1% lactam in PEG-40 Hydrogenated Castor Oil, 60 minutes sonication, temp reached 110 C., very dark colour) was “lactam solubilised”, the “Observations … % of lactam solubilised” value ([2]; 2.1% lactam in PEG-40 Hydrogenated Castor Oil, Magnetic stirring 24 hours) was ~50% of lactam and the “Observations … % of lactam solubilised” value ([2]; 2.1% lactam in PEG-40 Hydrogenated Castor Oil, Magnetic stirring 48 hours) was ~75% of lactam. For the same compound, the “Observations … % of lactam solubilised” value ([2]; 2.1% lactam in PEG-40 Hydrogenated Castor Oil, Magnetic stirring, heated to 50 C. 8 hours) was ~50% of lactam, the “Observations … % of lactam solubilised” value ([2]; 2.1% lactam in Polysorbate 20, 20 minutes sonication, temp reached 60-70 C., dark colour formed) was ~90% of lactam and the “Observations … % of lactam solubilised” value ([2]; 2.1% lactam in Polysorbate 20, 60 minutes sonication, temp reached 80 C.) was 90% of lactam. The “Observations … % of lactam solubilised” value ([2]; 2.1% lactam in Polysorbate 20, 60 minutes sonication, temp reached 90-100 C.) was 90% of lactam, the “Observations … % of lactam solubilised” value ([2]; 2.1% lactam in Polysorbate 20, Magnetic stirring 24 hours) was ~50% of lactam and the “Observations … % of lactam solubilised” value ([2]; 2.1% lactam in Polysorbate 20, Magnetic stirring 48 hours) was ~75% of lactam. The “Observations … % of lactam solubilised” value ([2]; 2.1% lactam in Polysorbate 20, Magnetic stirring, heated to 50 C. 8 hours) was ~50% of lactam, the “Observations … % of lactam solubilised” value ([2]; 2.1% lactam in Polysorbate 20, Magnetic stirring, heated to 50 C. 72 hours) was ~75% of lactam and the “Observations of solvent solution” value ([2]; 3% lactam in Diglycerin, Magnetic stirring 1 hour) was “No solubility”. The “Observations … % of lactam solubilised” value ([2]; 3% lactam in Dipropylene Glycol, Magnetic stirring 1 hour) was ~5% of lactam, the “Observations of solvent solution” value ([2]; 3% lactam in Hexylene Glycol, Magnetic stirring 1 hour) was “No solubility” and the “Observations of solvent solution” value ([2]; 3% lactam in Isopentyldiol, Magnetic stirring 1 hour) was “No solubility”. For the same compound, the “Observations of solvent solution” value ([2]; 3% lactam in MMB, Magnetic stirring 1 hour) was “No solubility”, the “Observations … % of lactam solubilised” value ([2]; 3% lactam in PEG-40 Hydrogenated Castor Oil, 20 minutes sonication, temp reached 60-70 C.) was ~75% of lactam and the “Observations … % of lactam solubilised” value ([2]; 3% lactam in PEG-40 Hydrogenated Castor Oil, 60 minutes sonication, temp reached 80 C.) was ~75% of lactam. For the same compound, the “Observations … % of lactam solubilised” value ([2]; 3% lactam in PEG-40 Hydrogenated Castor Oil, Magnetic stirring 1 hour) was ~25% of lactam, the “Observations … % of lactam solubilised” value ([2]; 3% lactam in PEG-60 Hydrogenated Castor Oil, Magnetic stirring 1 hour) was ~10% of lactam and the “Observations of solvent solution” value ([2]; 3% lactam in Pentylene Glycol, Magnetic stirring 1 hour) was “No solubility”. The “Observations … % of lactam solubilised” value ([2]; 3% lactam in Polysorbate 20, 20 minutes sonication, temp reached 60-70 C.) was ~50% of lactam, the “Observations … % of lactam solubilised” value ([2]; 3% lactam in Polysorbate 20, 60 minutes sonication, temp reached 90 C.) was ~60-70% of lactam and the “Observations … % of lactam solubilised” value ([2]; 3% lactam in Polysorbate 20, Magnetic stirring 1 hour) was ~25% of lactam. For the same compound, the “Observations … % of lactam solubilised” value ([2]; 3% lactam in Polysorbate 60, Magnetic stirring 1 hour, 50 C.) was ~10% of lactam, the “Observations … % of lactam solubilised” value ([2]; 3% lactam in Polysorbate 80, Magnetic stirring 1 hour) was ~10% of lactam and the “Observations … % of lactam solubilised” value ([2]; 3% lactam in Sisterna SP30-C, Magnetic stirring 1 hour) was ~5% of lactam. For the same compound, the “Observations … % of lactam solubilised” value ([2]; 3% lactam in Sisterna SP50-C, Magnetic stirring 1 hour) was ~5% of lactam, the “Observations … % of lactam solubilised” value ([2]; 3% lactam in Sisterna SP70-C, Magnetic stirring 1 hour) was ~5% of lactam and the “Observations … % of lactam solubilised” value ([2]; 3% lactam in Sorbitan Oleate, Magnetic stirring 1 hour, 50 C.) was ~5% of lactam. The “Observations … % of lactam solubilised” value ([2]; 4.2% lactam in PEG-40 Hydrogenated Castor Oil, 20 minutes sonication, temp reached 60-70 C., very dark colour) was 50% of lactam, the “Observations … % of lactam solubilised” value ([2]; 4.2% lactam in PEG-40 Hydrogenated Castor Oil, 60 minutes sonication, temp reached 80 C., very dark colour) was 75% of lactam and the “Observations … % of lactam solubilised” value ([2]; 4.2% lactam in PEG-40 Hydrogenated Castor Oil, 60 minutes sonication, temp reached 110 C., very dark colour) was 75% of lactam. The “Observations … % of lactam solubilised” value ([2]; 4.2% lactam in PEG-40 Hydrogenated Castor Oil, Magnetic stirring 24 hours) was ~25% of lactam, the “Observations … % of lactam solubilised” value ([2]; 4.2% lactam in PEG-40 Hydrogenated Castor Oil, Magnetic stirring 48 hours) was ~25% of lactam and the “Observations … % of lactam solubilised” value ([2]; 4.2% lactam in PEG-40 Hydrogenated Castor Oil, initially stirred for 2, 4 and 6 hours) was no more than 25% solubilised). For the same compound, the “Observations … % of lactam solubilised” value ([2]; 4.2% lactam in Polysorbate 20, 20 minutes sonication, temp reached 60-70 C.) was ~50% of lactam, the “Observations … % of lactam solubilised” value ([2]; 4.2% lactam in Polysorbate 20, 60 minutes sonication, temp reached 90 C.) was ~60-70% of lactam and the “Observations … % of lactam solubilised” value ([2]; 4.2% lactam in Polysorbate 20, Magnetic stirring 24 hours) was ~25% of lactam. The “Observations … % of lactam solubilised” value ([2]; 4.2% lactam in Polysorbate 20, Magnetic stirring 48 hours) was ~25% of lactam, the “Observations … % of lactam solubilised” value ([2]; 4.2% lactam in Polysorbate 20, initially stirred for 2, 4 and 6 hours) was no more than 25% solubilised) and the “Observations … % of lactam solubilised” value ([2]; PEG-40 Hydrogenated Castor Oil table: 3% lactam, Magnetic stirring 1 hour) was ~25% of lactam. The “Observations … % of lactam solubilised” value ([2]; Polysorbate 20 table: 3% lactam, Magnetic stirring 1 hour) was ~25% of lactam, the “colour change of lactam solution” value ([2]; when samples exceeded 50 C) was “dark brown colour” and the “colour change of lactam solution” value ([2]; when the temperature reached 65 C, Polysorbate-20 and PEG-40 Hydrogenated Castor Oil variants only) was “virtually opaque”. The “Observations … % of lactam solubilised” value [3] was ~75% of lactam and the “Result (inhibition of bacterial respiration versus water control)” value (S. epidermidis) was 82.5%.
